According to ChEMBL document CHEMBL1697781, “Assessment of the health effects of chemicals in humans: II. Construction of an adverse effects database for QSAR modeling” (Curr Drug Discov Technol, 2004):

Assays:
Conditions in all cases: human; call rule not given here
Hepatotoxicity [1] = test: FDA HLAED, lactate dehydrogenase (LDH) increase
Hepatotoxicity [2] = test: FDA HLAED, gamma-glutamyl transferase (GGT) increase
Hepatotoxicity [3] = test: FDA HLAED, alkaline phosphatase increase
Hepatotoxicity [4] = test: FDA HLAED, serum glutamic pyruvic transaminase (SGPT) increase
Hepatotoxicity [5] = test: FDA HLAED, serum glutamic oxaloacetic transaminase (SGOT) increase
Hepatotoxicity [6] = test: FDA HLAED, liver enzyme composite activity
Wherever GGT Increase - Index Value is given: reference of the scale not given here.
Wherever LDH Increase - Index Value is given: reference of the scale not given here.

| Structure (SMILES) | LDH Increase - Activity Score (Hepatotoxicity [1]) | LDH Increase - Index Value (Hepatotoxicity [1]) | LDH Increase - Number of Reports (Hepatotoxicity [1]) | GGT Increase - Activity Score (Hepatotoxicity [2]) | GGT Increase - Index Value (Hepatotoxicity [2]) | GGT Increase - Number of Reports (Hepatotoxicity [2]) | Alkaline Phosphatase Increase - Activity Score (Hepatotoxicity [3]) | Alkaline Phosphatase Increase - Index Value (Hepatotoxicity [3]) | Alkaline Phosphatase Increase - Number of Reports (Hepatotoxicity [3]) | SGPT Increase - Activity Score (Hepatotoxicity [4]) | SGPT Increase - Index Value (Hepatotoxicity [4]) | SGPT Increase - Number of Reports (Hepatotoxicity [4]) | SGOT Increase - Activity Score (Hepatotoxicity [5]) | SGOT Increase - Index Value (Hepatotoxicity [5]) | SGOT Increase - Number of Reports (Hepatotoxicity [5]) | Composite Activity - Active (Hepatotoxicity [6]; Liver) | Composite Activity - Marginal (Hepatotoxicity [6]; Liver) | Composite Activity - Active (Hepatotoxicity [6]) | Composite Activity - Marginal (Hepatotoxicity [6]) | Composite Activity - Score (Hepatotoxicity [6]) | other results |
| --- | --- | --- | --- | --- | --- | --- | --- | --- | --- | --- | --- | --- | --- | --- | --- | --- | --- | --- | --- | --- | --- |
| COc1ccc2cc([C@H](C)C(=O)O)ccc2c1 [NAPROXEN] | Inactive | 0 | < 4 | Inactive | 0.1 | < 4 | Inactive | 0.1 | < 4 | Inactive | 0 | < 4 | Inactive | 0.1 | >= 4 | 0 | 0 |  |  |  | Composite Activity - Score (Hepatotoxicity [6]; Liver): Inactive |
| CCCc1c2oc(C(=O)O)cc(=O)c2cc2c(=O)cc(C(=O)O)n(CC)c12 [NEDOCROMIL] | Inactive | 0.3 | < 4 | Inactive | 0 | < 4 | Inactive | 0 | < 4 | Inactive | 0.3 | < 4 | Inactive | 0.5 | < 4 |  |  | 0 | 0 | Inactive |  |
| CCc1nn(CCCN2CCN(c3cccc(Cl)c3)CC2)c(=O)n1CCOc1ccccc1 [NEFAZODONE] | Inactive | 1.1 | >= 4 | Inactive | 1.1 | >= 4 | Inactive | 1.1 | >= 4 | Marginally Active | 3.3 | >= 4 | Marginally Active | 3.6 | >= 4 |  |  | 0 | 2 | Inactive |  |
| CCN[C@@H]1C[C@H](N)[C@@H](O[C@H]2OC(CN)=CC[C@H]2N)[C@H](O)[C@H]1O[C@H]1OC[C@](C)(O)[C@H](NC)[C@H]1O [NETILMICIN] | Inactive | 0 | < 4 | Inactive | 0 | < 4 | Inactive | 0 | < 4 | Inactive | 0 | < 4 | Inactive | 0 | < 4 |  |  | 0 | 0 | Inactive |  |
| Cc1ccnc2c1NC(=O)c1cccnc1N2C1CC1 [NEVIRAPINE] | Active | 34.4 | >= 4 | Active | 41.2 | >= 4 | Active | 27.5 | >= 4 | Active | 55 | >= 4 | Active | 68.7 | >= 4 |  |  | 5 | 0 | Active |  |
| COC(=O)C1=C(C)NC(C)=C(C(=O)OCCN(C)Cc2ccccc2)C1c1cccc([N+](=O)[O-])c1 (stereo unspecified) [NICARDIPINE] | Inactive | 0.9 | >= 4 | Inactive | 0.4 | < 4 | Inactive | 2 | >= 4 | Inactive | 2.5 | >= 4 | Marginally Active | 3 | >= 4 |  |  | 0 | 1 | Inactive |  |
| CN1CCC[C@H]1c1cccnc1 [NICOTINE] | Inactive | 0.9 | < 4 | Inactive | 0.3 | < 4 | Inactive | 0 | < 4 | Inactive | 0.6 | < 4 | Inactive | 0.6 | < 4 | 0 | 0 |  |  |  | Composite Activity - Score (Hepatotoxicity [6]; Liver): Inactive |
| COC(=O)C1=C(C)NC(C)=C(C(=O)OC)C1c1ccccc1[N+](=O)[O-] [NIFEDIPINE] | Inactive | 0.1 | < 4 | Inactive | 0 | < 4 | Inactive | 0.3 | < 4 | Inactive | 0.4 | >= 4 | Inactive | 0.6 | >= 4 |  |  | 0 | 0 | Inactive |  |
| CC1(C)NC(=O)N(c2ccc([N+](=O)[O-])c(C(F)(F)F)c2)C1=O [NILUTAMIDE] | Inactive | 0 | < 4 | Inactive | 0 | < 4 | Inactive | 0 | < 4 | Inactive | 19.5 | < 4 | Inactive | 19.5 | < 4 | 0 | 0 |  |  |  | Composite Activity - Score (Hepatotoxicity [6]; Liver): Inactive |
| COCCOC(=O)C1=C(C)NC(C)=C(C(=O)OC(C)C)C1c1cccc([N+](=O)[O-])c1 (stereo unspecified) [NIMODIPINE] | Active | 23.4 | >= 4 | Active | 17.6 | < 4 | Active | 17.6 | < 4 | Active | 29.3 | >= 4 | Active | 23.4 | >= 4 |  |  | 5 | 0 | Active |  |
| COC(=O)C1=C(C)NC(C)=C(C(=O)OCC(C)C)C1c1ccccc1[N+](=O)[O-] (stereo unspecified) [NISOLDIPINE] | Inactive | 0 | < 4 | Inactive | 0 | < 4 | Inactive | 0 | < 4 | Inactive | 1.6 | < 4 | Inactive | 3.2 | < 4 |  |  | 0 | 0 | Inactive |  |
| O=C1CN(/N=C/c2ccc([N+](=O)[O-])o2)C(=O)N1 [NITROFURANTOIN] | Active | 35.6 | >= 4 | Active | 16.4 | >= 4 | Active | 32.8 | >= 4 | Active | 27.4 | >= 4 | Active | 52 | >= 4 | 5 | 0 |  |  |  | Composite Activity - Score (Hepatotoxicity [6]; Liver): Active |
